Test [1] deals with Karpas422 target cells. Briefly: Re-challenge RTCC assay, Karpas 422. The class given is cell-based, human. As to conditions: last re-challenge. Here is the method: OCI-LY-19 and Karpas422 target cells stably expressing firefly luciferase were plated in a Costar 6 well plate in T Cell Media (TCM). PBMCs previously isolated and cryopreserved from 2 Leukopak donors were thawed and Pan T cells were isolated (as described earlier). […] The plates were incubated for 4 days for OCI-LY-19 and 5 days for Karpas 422 cells. At the end of incubation, the killing of target cells was determined using the luminescence signal. The absolute T cell counts from each antibody treated condition was also determined. For the next round of rechallenge, it was ensured that the killing of target cells was equivalent across various antibody conditions. […] Additionally, a dose titration RTCC at a E:T of 1:1 and a concentration range of 2 nM-0.000001 nM was set-up using T cells from the different antibody treated conditions with a 4 day incubation used for each cell line. The killing of target cells was determined using the luminescence signal to generate dose response curves. At the end of the challenge, the above process was repeated once more for Karpas 422 and twice more for OCI-LY-19 cells.

Test [2] has as its system T cells. Briefly: TBM and BBM mediated T cell proliferation (Example 20). The format is cell-based, human. The conditions noted are these: in the presence of OCI-LY-19 and Toledo cells. Here is the method:
Briefly, OCI-LY-19, Karpas422, and Toledo target cells stably expressing firefly luciferase were plated in a 96 well plate in T Cell Media (TCM) (RPMI-1640, ThermoFisher Scientific, Cat #11875-085), 10% FBS (Seradigm, Cat #1500-500), 1% L-Glutamine (Thermo Fisher Scientific, Cat #25830-081), 1% Non Essential Amino Acids (Thermo Fisher Scientific, Cat #11140-050), 1% Pen/Strep (Thermo Fisher Scientific, Cat #15070063), 1% HEPES (Thermo Fisher Scientific, Cat #15630080), Sodium Pyruvate (Thermo Fisher Scientific, Cat #11360-070), 0.1% Beta-mercaptoethanol (Thermo Fisher Scientific, Cat #21985-023)]. PBMCs previously isolated and cryopreserved from 2 Leukopak donors were thawed and Pan T cells were isolated (as described earlier). Isolated T cells were labelled with 5 μM Cell Trace Violet (CTV) (Thermo Fisher Scientific, Cat #C34557) following the manufacturer's protocol and were co-cultured with target cells at an E:T ratio of 1:3. A dilution series of CD3med TSP1, CD3hi TSP1, CD3hi BSP1, CD3hi TSP1C, and blinatumomab ranging from 2.5 nM-0.0006 nM was added to cells and the plates were incubated in a 5% CO2, 37° C. incubator for 96 hrs. […]

As for “blinatumomab: bispecific T cell engager, or BiTE, that binds to both CD19 and CD3 but lacks an Fc domain [reference compound]”, in test [1], the maximum lysis entry is reported as “higher maximum lysis than CD3hi TSP1”. The “T cell proliferation, potency compared between constructs” value in test [2] is reported as “most potent T cell proliferation”.

These data come from patent publication US12221481B2, “CD19 binding molecules and uses thereof” (Novartis AG, priority 2019, dated 2025).
